Measured values taken from US10633419B2, “Immunomodulators” (BRISTOL-MYERS SQUIBB COMPANY, priority 2014, dated 2020).
Positions of bridges follow the written chain, without caps; N, C: chain ends. Non-standard residues stand in square brackets, D forms with d. Residues, ends and D or L forms follow the SMILES beside them. *: point of attachment. Trp(1-CH2COOH) = N[C@@H](Cc1cn(CC(=O)O)c2ccccc12)C(=O)O; X9 = O=C(O)CCCCCCCCCCCCCCCCC(=O)N[C@@H](CCN*)C(=O)O; Hyp = O=C(O)[C@@H]1C[C@@H](O)CN1; NHhexadecyl = CCCCCCCCCCCCCCCCN*; NMeNle = CCCC[C@H](NC)C(=O)O; Pip = O=C(O)[C@@H]1CCCCN1; NMeA = CN[C@@H](C)C(=O)O; Pra = C#CC[C@H](N)C(=O)O; Aun = NCCCCCCCCCCC(=O)O; Dab = NCC[C@H](N)C(=O)O; Dap = NC[C@H](N)C(=O)O

The compounds below were run against T1, PD-L1 (Homo sapiens, UniProt Q9NZQ7) (assay: PD-1/PD-L1 Homogenous Time-Resolved Fluorescence (HTRF) binding assay (PD-1-Ig/PD-L1-His)). Settings: inhibition of PD-1-Ig binding to PD-L1-TVMV-His; value given as range class; read-out: HTRF IC50.
T1 construct: hPDL1(19-239)-TVMV-His; made in house; host or cells: HEK293T
T1 sequence (Q9NZQ7 with tags, fused parts or gaps): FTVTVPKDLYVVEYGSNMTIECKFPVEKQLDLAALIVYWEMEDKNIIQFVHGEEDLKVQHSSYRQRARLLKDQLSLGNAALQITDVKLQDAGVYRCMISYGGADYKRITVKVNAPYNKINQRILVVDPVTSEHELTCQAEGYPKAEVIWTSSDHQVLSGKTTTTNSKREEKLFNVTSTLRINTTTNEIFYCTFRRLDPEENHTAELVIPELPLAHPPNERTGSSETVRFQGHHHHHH
Description: The ability of the macrocyclic peptides of the present disclosure to bind to PD-L1 was investigated using a PD-1/PD-L1 Homogenous Time-Resolved Fluorescence (HTRF) binding assay.
Homogenous Time-Resolved Fluorescence (HTRF) Assays of Binding of Soluble PD-1 to Soluble PD-L1. Soluble PD-1 and soluble PD-L1 refers to proteins with carboxyl-end truncations that remove the transmembrane-spanning regions and are fused to heterologous sequences, specifically the Fc portion of the human immunoglobuling G sequence (Ig) or the hexahistidine epitope tag (His). All binding studies were performed in an HTRF assay buffer consisting of dPBS supplemented with 0.1% (w/v) bovine serum albumin and 0.05% (v/v) Tween-20. For the PD-1-Ig/PD-L1-His binding assay, inhibitors were pre-incubated with PD-L1-His (10 nM final) for 15 m in 4 μl of assay buffer, followed by addition of PD-1-Ig (20 nM final) in 1 μl of assay buffer and further incubation for 15m. PD-L1 fusion proteins from either human, cynomologous macaques, mouse, or other species were used. HTRF detection was achieved using europium crypate-labeled anti-Ig monoclonal antibody (1 nM final) and allophycocyanin (APC) labeled anti-His monoclonal antibody (20 nM final). Antibodies were diluted in HTRF detection buffer and 5 μl was dispensed on top of binding reaction. The reaction was allowed to equilibrate for 30 minutes and signal (665 nm/620 nm ratio) was obtained using an EnVision fluorometer. Additional binding assays were established between PD-1-Ig/PD-L2-His (20 and 5 nM, respectively), CD80-His/PD-L1-Ig (100 and 10 nM, respectively) and CD80-His/CTLA4-Ig (10 and 5 nM, respectively). Binding/competition studies between biotinylated Compound No. 71 and human PD-L1-His were performed as follows. Macrocyclic peptide inhibitors were pre-incubated with PD-L1-His (10 nM final) for 60 minutes in 4 μl of assay buffer followed by addition of biotinylated Compound No. 71 (0.5 nM final) in 1 μl of assay buffer. Binding was allowed to equilibrate for 30 minutes followed by addition of europium crypated labeled Streptavidin (2.5 pM final) and APC-labeled anti-His (20 nM final) in 5 μl of HTRF buffer. The reaction was allowed to equilibrate for 30m and signal (665 nm/620 nm ratio) was obtained using an EnVision fluorometer.
Recombinant Proteins. Carboxyl-truncated human PD-1 (amino acids 25-167) with a C-terminal human Ig epitope tag [hPD-1 (25-167)-3S-IG] and human PD-L1 (amino acids 18-239) with a C-terminal His epitope tag [hPD-L1(19-239)-tobacco vein mottling virus protease cleavage site (TVMV)-His] were expressed in HEK293T cells and purified sequentially by recombinant Protein A affinity chromatography and size exclusion chromatography. Human PD-L2-His (Sino Biologicals), CD80-His (Sino Biologicals), CTLA4-Ig (RnD Systems) were all obtained through commercial sources.
`C#CC[C@H](NC(=O)CNC(=O)[C@@H]1CSCC(=O)N[C@@H](Cc2ccc(O)cc2)C(=O)N(C)[C@@H](C)C(=O)N[C@@H](CC(N)=O)C(=O)N2CCC[C@H]2C(=O)N[C@@H](CN)C(=O)N[C@@H](CC(C)C)C(=O)N2C[C@H](O)C[C@H]2C(=O)N[C@@H](Cc2c[nH]c3ccccc23)C(=O)N[C@@H](CCN)C(=O)N[C@@H](Cc2cn(CC(=O)O)c3ccccc23)C(=O)N(C)[C@@H](CCCC)C(=O)N(C)[C@@H](CCCC)C(=O)N[C@@H](CC(C)C)C(=O)N1)C(N)=O` [INT 1300W] ({CH2CO}-Y[NMeA]NP[Dap]L[Hyp]W[Dab][Trp(1-CH2COOH)][NMeNle][NMeNle]LCG[Pra]-NH2; thioether N-14) showed an IC50 of 0.01 to 0.099 µM.
`CCCC[C@H]1C(=O)N(C)[C@@H](CCCC)C(=O)N[C@@H](CC(C)C)C(=O)N[C@H](C(=O)NCC(=O)N[C@@H](CCC(=O)NCC[C@H](NC(=O)CCCCCCCCCCCCCCCCC(=O)O)C(=O)O)C(=O)O)CSCC(=O)N[C@@H](Cc2ccc(O)cc2)C(=O)N2CCCC[C@H]2C(=O)N[C@@H](CC(N)=O)C(=O)N2CCC[C@H]2C(=O)N[C@@H](CN)C(=O)N[C@@H](CC(C)C)C(=O)N2C[C@H](O)C[C@H]2C(=O)N[C@@H](Cc2c[nH]c3ccccc23)C(=O)N[C@@H](CCN)C(=O)N[C@@H](Cc2cn(CC(=O)O)c3ccccc23)C(=O)N1C` [Example 13143] ({CH2CO}-Y[Pip]NP[Dap]L[Hyp]W[Dab][Trp(1-CH2COOH)][NMeNle][NMeNle]LCGE(X9)-OH; thioether N-14) showed an IC50 of 0.1 to 1.6 µM.
Compound `CCCC[C@H]1C(=O)N(C)[C@@H](CCCC)C(=O)N[C@@H](CC(C)C)C(=O)N[C@H](C(=O)NCCCCCCCCCCC(=O)NCCCCCCCCCCC(=O)NCCCCCCCCCCC(=O)O)CSCC(=O)N[C@@H](Cc2ccc(O)cc2)C(=O)N(C)[C@@H](C)C(=O)N[C@@H](CC(N)=O)C(=O)N2CCC[C@H]2C(=O)N[C@@H](CN)C(=O)N[C@@H](CCC(N)=O)C(=O)N2C[C@H](O)C[C@H]2C(=O)N[C@@H](Cc2c[nH]c3ccccc23)C(=O)N[C@@H](CO)C(=O)N[C@@H](Cc2cn(CC(=O)O)c3ccccc23)C(=O)N1C` [Example 11090] ({CH2CO}-Y[NMeA]NP[Dap]Q[Hyp]WS[Trp(1-CH2COOH)][NMeNle][NMeNle]LC[Aun][Aun][Aun]-OH; thioether N-14) has an IC50 of 0.01 to 0.099 µM.
Work on `CCCCCCCCCCCCCCCCNC(=O)[C@H](CC(=O)O)NC(=O)CNC(=O)CNC(=O)CNC(=O)[C@@H]1CSCC(=O)N[C@@H](Cc2ccc(O)cc2)C(=O)N(C)[C@@H](C)C(=O)N[C@@H](CC(=O)O)C(=O)N2CCC[C@H]2C(=O)N[C@@H](Cc2cnc[nH]2)C(=O)N[C@@H](CC(C)C)C(=O)N2C[C@H](O)C[C@H]2C(=O)N[C@@H](Cc2c[nH]c3ccccc23)C(=O)N[C@@H](CO)C(=O)N[C@@H](Cc2c[nH]c3ccccc23)C(=O)N(C)[C@@H](CCCC)C(=O)N(C)[C@@H](CCCC)C(=O)N[C@@H](CCCNC(=N)N)C(=O)N1` [Example 11120] ({CH2CO}-Y[NMeA]DPHL[Hyp]WSW[NMeNle][NMeNle]RCGGGD-NHhexadecyl; thioether N-14) yielded an IC50 of 0.1 to 1.6 µM.
`CCCC[C@H]1C(=O)N(C)[C@@H](CCCC)C(=O)N[C@@H](CCC(=O)O)C(=O)N[C@H](C(=O)NCC(=O)N[C@@H](Cc2cn(CC[C@H](NC(=O)CCCCCCCCCCCCCCC(=O)O)C(=O)O)nn2)C(N)=O)CSCC(=O)N[C@@H](Cc2ccc(O)cc2)C(=O)N(C)[C@@H](C)C(=O)N[C@@H](CC(=O)O)C(=O)N2CCC[C@H]2C(=O)N[C@@H](Cc2c[nH]cn2)C(=O)N[C@@H](CCCCN)C(=O)N2C[C@H](O)C[C@H]2C(=O)N[C@@H](Cc2c[nH]c3ccccc23)C(=O)N[C@@H](CCCCN)C(=O)N[C@@H](Cc2cn(CC(=O)O)c3ccccc23)C(=O)N1C` [Example 14075] gave an IC50 of 0.01 to 0.099 µM.
